For 29 compounds, IC50 results are on record in patent US12338237B2, “Derivatives having 1,2,3,4-tetrahydronaphthalene moiety or pharmaceutically acceptable salt thereof and pharmaceutical compositions comprising the same” (YUHAN CORPORATION, priority 2019, dated 2025).

Like-named read-outs stand apart in the source and are kept apart here.

Experiment [1] has as its target glucosylceramide synthase (GCS) (Homo sapiens (Human), UniProt Q16739). The experiment can be described thus: Evaluation of inhibitory activities against GCS (enzyme reaction with A549 cell lysate, NBD C6-ceramide, HPLC fluorescence). The experiment is classed as biochemical. As to conditions: GCS activity in A549 cell lysate, 37° C. for 90 minutes. Summed up: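 Lysate of A549 cells in 50 mM HEPES pH 7.3 incubated with test compound and NBD C6-ceramide at 37 °C for 90 min; lipids extracted with chloroform/methanol and GlcCer and ceramide peaks quantified by HPLC fluorescence. Activity from GlcCer area fraction, normalised between DMSO and ibiglustat controls.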

The subject of a further experiment is GM1 production. The experiment can be described thus: cells. Type of experiment: cell-based.

What is called IC50 is the concentration needed to halve the response being measured.

Sequence of glucosylceramide synthase (GCS) (Q16739 whole entry, looked up): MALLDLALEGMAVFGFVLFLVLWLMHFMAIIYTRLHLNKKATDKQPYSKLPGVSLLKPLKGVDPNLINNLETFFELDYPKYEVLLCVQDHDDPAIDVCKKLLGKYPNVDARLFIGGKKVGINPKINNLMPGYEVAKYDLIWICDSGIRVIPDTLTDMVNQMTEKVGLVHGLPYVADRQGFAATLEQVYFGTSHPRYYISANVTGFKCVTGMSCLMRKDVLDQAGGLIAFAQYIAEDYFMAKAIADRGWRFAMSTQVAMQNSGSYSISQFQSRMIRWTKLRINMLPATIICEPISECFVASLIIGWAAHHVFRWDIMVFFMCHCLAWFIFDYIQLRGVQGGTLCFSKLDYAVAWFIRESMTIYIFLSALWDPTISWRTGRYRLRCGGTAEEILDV

For `O=C(NC1c2cc(-c3cccc(Cl)c3)ccc2CCC12CC2)O[C@@H]1CN2CCC1CC2` (stereo partly drawn) [Example 176, (S)-quinuclidin-3-yl (7′-(3-chlorophenyl)-3′,4′-dihydro-1′H-spiro[cyclopropane-1,2′-naphthalen]-1′-yl)carbamate], the half-maximal inhibitory concentration (IC50) worked out at 14.9 nM in experiment [1] and 211 nM with GM1 production (Homo sapiens, Jurkat, 72 h).
Taken in the same sequence, the figures for `COc1ccc(-c2ccc3c(c2)CCC2(CC2)C3NC(=O)O[C@@H]2CN3CCC2CC3)c(OC)c1` (stereo partly drawn) [Example 210, (S)-quinuclidin-3-yl (6′-(2,4-dimethoxyphenyl)-3′,4′-dihydro-1′H-spiro[cyclopropane-1,2′-naphthalen]-1′-yl)carbamate] were 23.6 nM and 44.2 nM.
In the case of `COCCOc1ccccc1-c1ccc2c(c1)C(NC(=O)O[C@@H]1CN3CCC1CC3)C(C)(C)CC2` (stereo partly drawn) [Example 167, (S)-quinuclidin-3-yl (7-(2-(2-methoxyethoxy)phenyl)-2,2-dimethyl-1,2,3,4-tetrahydronaphthalen-1-yl)carbamate], the IC50 in experiment [1] turned out to be 19.6 nM; in the experiment on GM1 production (Homo sapiens, Jurkat, 72 h), 103 nM.
As for `COc1ccccc1-c1ccc2c(c1)C(NC(=O)O[C@@H]1CN3CCC1CC3)CCC2` (stereo partly drawn) [Example 75, (S)-quinuclidin-3-yl (7-(2-methoxyphenyl)-1,2,3,4-tetrahydronaphthalen-1-yl)carbamate], the IC50 worked out at 22.7 nM in experiment [1] and 138 nM in the experiment with GM1 production (Homo sapiens, Jurkat, 72 h).
On to `CC(C)Oc1ccc(-c2ccc3c(c2)C(NC(=O)O[C@@H]2CN4CCC2CC4)CCC3)cc1` (stereo partly drawn) [Example 83, (S)-quinuclidin-3-yl (7-(4-isopropoxyphenyl)-1,2,3,4-tetrahydronaphthalen-1-yl)carbamate], for which the concentration for half-maximal inhibition (IC50) is 39.1 nM in experiment [1] and 386 nM with GM1 production (Homo sapiens, Jurkat, 72 h).
For the compound `O=C(NC1CCCc2cc(-c3ccc4c(c3)OCC4)ccc21)O[C@@H]1CN2CCC1CC2` (stereo partly drawn) [Example 44, (S)-quinuclidin-3-yl (6-(2,3-dihydrobenzofuran-6-yl)-1,2,3,4-tetrahydronaphthalen-1-yl)carbamate], the 50% inhibitory concentration (IC50) in experiment [1] turned out to be 7.59 nM; in the experiment with GM1 production (Homo sapiens, Jurkat, 72 h) it was 480 nM.
On to `COc1ccc(-c2ccc3c(c2)CCC2(CC2)C3NC(=O)O[C@@H]2CN3CCC2CC3)cc1` (stereo partly drawn) [Example 215, (S)-quinuclidin-3-yl (6′-(4-methoxyphenyl)-3′,4′-dihydro-1′H-spiro[cyclopropane-1,2′-naphthalen]-1′-yl) carbamate], for which the IC50 was 2.35 nM in experiment [1] and 57.3 nM in the experiment with GM1 production (read-out: IC50).
On to `CC(C)Oc1ccccc1-c1ccc2c(c1)C(NC(=O)O[C@@H]1CN3CCC1CC3)CCC2` (stereo partly drawn) [Example 78, (S)-quinuclidin-3-yl (7-(2-isopropoxyphenyl)-1,2,3,4-tetrahydronaphthalen-1-yl)carbamate], for which the IC50 is 30.1 nM in experiment [1] and 230 nM in the experiment with GM1 production (Homo sapiens, Jurkat, 72 h).
For the compound `CC1(C)CCc2ccc(-c3ccc(OC(F)F)cc3)cc2C1NC(=O)O[C@@H]1CN2CCC1CC2` (stereo partly drawn) [Example 164, (S)-quinuclidin-3-yl (7-(4-(difluoromethoxy)phenyl)-2,2-dimethyl-1,2,3,4-tetrahydronaphthalen-1-yl)carbamate], the IC50 was 9.23 nM in experiment [1] and 26.1 nM in the experiment with GM1 production (Homo sapiens, Jurkat, 72 h).
Taken in the same sequence, the figures for `COc1ccc(-c2ccc3c(c2)CCC2(CC2)C3NC(=O)O[C@@H]2CN3CCC2CC3)cc1OC` (stereo partly drawn) [Example 213, (S)-quinuclidin-3-yl (6′-(3,4-dimethoxyphenyl)-3′,4′-dihydro-1′H-spiro[cyclopropane-1,2′-naphthalen]-1′-yl)carbamate] were 34.2 nM and 145 nM.
The matching figures for `O=C(NC1CCCc2ccc(-c3cc(F)ccc3F)cc21)O[C@@H]1CN2CCC1CC2` (stereo partly drawn) [Example 67, (S)-quinuclidin-3-yl (7-(2,5-difluorophenyl)-1,2,3,4-tetrahydronaphthalen-1-yl)carbamate]: 7.3 nM and 38.3 nM.
The matching figures for `O=C(NC1c2ccc(-c3cccc(C(F)F)c3)cc2CCC12CC2)O[C@@H]1CN2CCC1CC2` (stereo partly drawn) [Example 206, (S)-quinuclidin-3-yl (6′-(3-(difluoromethyl)phenyl)-3′,4′-dihydro-1′H-spiro[cyclopropane-1,2′-naphthalen]-1′-yl)carbamate]: 10.2 nM and 15.2 nM.
Take `O=C(NC1CCCc2cc(-c3ccc4c(c3)OCCO4)ccc21)O[C@@H]1CN2CCC1CC2` (stereo partly drawn) [Example 43, (S)-quinuclidin-3-yl (6-(2,3-dihydrobenzo[b][1,4]dioxin-6-yl)-1,2,3,4-tetrahydronaphthalen-1-yl)carbamate]: the IC50 in experiment [1] worked out at 6.06 nM; in the experiment with GM1 production (Homo sapiens, Jurkat, 72 h), 616 nM.
On to `O=C(NC1CCCc2cc(-c3ccc(C4CC4)cc3)ccc21)O[C@H]1CN2CCC1CC2` (stereo partly drawn) [Example 37, (S)-quinuclidin-3-yl (6-(4-cyclopropyl)-1,2,3,4-tetrahydronaphthalen-1-yl)carbamate], for which the half-inhibitory concentration (IC50) is 5.07 nM in experiment [1] and 286 nM in the experiment on GM1 production (read-out: IC50).
`CC(C)c1cccc(-c2ccc3c(c2)CCCC3NC(=O)O[C@@H]2CN3CCC2CC3)c1` (stereo partly drawn) [Example 40, (S)-quinuclidin-3-yl (6-(3-isopropylphenyl)-1,2,3,4-tetrahydronaphthalen-1-yl)carbamate]: the half-inhibitory concentration (IC50) in experiment [1] is 1.77 nM; in the experiment with GM1 production (Homo sapiens, Jurkat, 72 h), 218 nM.
The matching figures for `CC(C)c1cccc(-c2ccc3c(c2)CCC(C)(C)C3NC(=O)O[C@@H]2CN3CCC2CC3)c1` (stereo partly drawn) [Example 129, (S)-quinuclidin-3-yl (6-(3-isopropylphenyl)-2,2-dimethyl-1,2,3,4-tetrahydronaphthalen-1-yl)carbamate]: 2.08 nM and 1.3 nM.
Take `CC1(C)CCc2cc(-c3ccc(Cl)c(Cl)c3)ccc2C1NC(=O)O[C@@H]1CN2CCC1CC2` (stereo partly drawn) [Example 106, (S)-quinuclidin-3-yl (6-(3,4-dichlorophenyl)-2,2-dimethyl-1,2,3,4-tetrahydronaphthalen-1-yl)carbamate]: the half-maximal inhibitory concentration (IC50) in experiment [1] turned out to be 4.05 nM; in the experiment on GM1 production (Homo sapiens, Jurkat, 72 h), 3.33 nM.
The matching figures for `CC1(C)CCc2cc(-c3ccc(Cl)cc3)ccc2C1NC(=O)O[C@@H]1CN2CCC1CC2` (stereo partly drawn) [Example 87, (S)-quinuclidin-3-yl (6-(4-chlorophenyl)-2,2-dimethyl-1,2,3,4-tetrahydronaphthalen-1-yl)carbamate]: 6 nM and 19.5 nM.
Consider `CC(C)Oc1ccc(-c2ccc3c(c2)CCC(C)(C)C3NC(=O)O[C@@H]2CN3CCC2CC3)cc1F` (stereo partly drawn) [Example 142, (S)-quinuclidin-3-yl (6-(3-fluoro-4-isopropoxyphenyl)-2,2-dimethyl-1,2,3,4-tetrahydronaphthalen-1-yl)carbamate], for which the IC50 in experiment [1] turned out to be 1.11 nM; with GM1 production (Homo sapiens, Jurkat, 72 h) it was 3.4 nM.
The matching figures for `CCc1ccc(-c2ccc3c(c2)CCC2(CC2)C3NC(=O)O[C@@H]2CN3CCC2CC3)cc1` (stereo partly drawn) [Example 221, (S)-quinuclidin-3-yl (6′-(4-ethylphenyl)-3′,4′-dihydro-1′H-spiro[cyclopropane-1,2′-naphthalen]-1′-yl)carbamate]: 2.01 nM and 18.8 nM.
`CCCOc1c(C)cc(-c2ccc3c(c2)CCC(C)(C)C3NC(=O)O[C@@H]2CN3CCC2CC3)cc1C` (stereo partly drawn) [Example 146, (S)-quinuclidin-3-yl (6-(3,5-dimethyl-4-propoxyphenyl)-2,2-dimethyl-1,2,3,4-tetrahydronaphthalen-1-yl) carbamate]: the concentration for half-maximal inhibition (IC50) turned out to be 1.8 nM in experiment [1] and 0.8 nM in the experiment on GM1 production (read-out: IC50).
`Cc1cc(-c2ccc3c(c2)CCCC3NC(=O)O[C@@H]2CN3CCC2CC3)ccn1` (stereo partly drawn) [Example 50, (S)-quinuclidin-3-yl (6-(2-methylpyridin-4-yl)-1,2,3,4-tetrahydronaphthalen-1-yl)carbamate]: the half-inhibitory concentration (IC50) in experiment [1] worked out at 33.5 nM; in the experiment with GM1 production (Homo sapiens, Jurkat, 72 h), 2190 nM.
For `COc1ccc(-c2ccc3c(c2)CCC(C)(C)C3NC(=O)O[C@@H]2CN3CCC2CC3)c(OC)c1` (stereo partly drawn) [Example 134, (S)-quinuclidin-3-yl (6-(2,4-dimethoxyphenyl)-2,2-dimethyl-1,2,3,4-tetrahydronaphthalen-1-yl)carbamate], the half-inhibitory concentration (IC50) worked out at 2.95 nM in experiment [1] and 6.6 nM in the experiment on GM1 production (Homo sapiens, Jurkat, 72 h).
The matching figures for `O=C(NC1CCCc2cc(-c3ccc4c(c3)OC(F)(F)O4)ccc21)O[C@@H]1CN2CCC1CC2` (stereo partly drawn) [Example 42, (S)-quinuclidin-3-yl (6-(2,2-difluorobenzo[d][1,3]dioxol-5-yl)-1,2,3,4-tetrahydronaphthalen-1-yl)carbamate]: 6.71 nM and 210 nM.
As to `O=C(NC1CCCc2ccc(-c3ccc4c(c3)OCO4)cc21)O[C@@H]1CN2CCC1CC2` (stereo partly drawn) [Example 84, (S)-quinuclidin-3-yl (7-(benzo[d]dioxol-5-yl)-1,2,3,4-tetrahydronaphthalen-1-yl)carbamate], the IC50 in experiment [1] is 75.6 nM; in the experiment with GM1 production (Homo sapiens, Jurkat, 72 h), 144 nM.
For `Cc1cccc(-c2ccc3c(c2)C(NC(=O)O[C@@H]2CN4CCC2CC4)CCC3)c1` (stereo partly drawn) [Example 85, (S)-quinuclidin-3-yl (7-(m-tolyl)-1,2,3,4-tetrahydronaphthalen-1-yl)carbamate], the 50% inhibitory concentration (IC50) is 74.3 nM in experiment [1] and 192 nM in the experiment with GM1 production (Homo sapiens, Jurkat, 72 h).
As to `COc1ccc(OC)c(-c2ccc3c(c2)CCC(C)(C)C3NC(=O)O[C@@H]2CN3CCC2CC3)c1` (stereo partly drawn) [Example 135, (S)-quinuclidin-3-yl (6-(2,5-dimethoxyphenyl)-2,2-dimethyl-1,2,3,4-tetrahydronaphthalen-1-yl)carbamate], the IC50 turned out to be 2.81 nM in experiment [1] and 8.3 nM in the experiment with GM1 production (Homo sapiens, Jurkat, 72 h).
The matching figures for `O=C(NC1CCCc2cc(-c3cnc4[nH]ccc4c3)ccc21)O[C@@H]1CN2CCC1CC2` (stereo partly drawn) [Example 52, (S)-quinuclidin-3-yl (6-(1H-pyrrolo[2,3-b]pyridin-5-yl)-1,2,3,4-tetrahydronaphthalen-1-yl)carbamate]: 31.8 nM and 22.7 nM.
For the compound `Cc1ccc(-c2ccc3c(c2)C(NC(=O)O[C@@H]2CN4CCC2CC4)C2(CC3)CC2)cc1` (stereo partly drawn) [Example 183, (S)-quinuclidin-3-yl (7′-(p-tolyl)-3′,4′-dihydro-1′H-spiro[cyclopropane-1,2′-naphthalen]-1′-yl)carbamate], the half-maximal inhibitory concentration (IC50) in experiment [1] stood at 12.9 nM; with GM1 production (Homo sapiens, Jurkat, 72 h) it was 145 nM.
